Laboratory results as given in US6982348B2, “Aminoethanol derivatives” (Takeda Pharmaceutical Company Limited, priority 2001, dated 2006).

Compared with `O=C(N[C@H](Cc1cccc(OC(F)(F)C(F)F)n1)[C@@H](O)c1ccc(F)cc1)c1cccc2c1C=CCCC2` (racemic) [Example 239, N-((1RS,2SR)-2-(4-fluorophenyl)-2-hydroxy-1-{[6-(1,1,2,2-tetrafluoroethoxy)pyridin-2-yl]methyl}ethyl)-6,7-dihydro-5H-benzo[a][7]annulene-1-carboxamide], `O=C(N[C@H](Cc1cccc(OC(F)(F)C(F)F)c1)[C@@H](O)c1ccc(Br)cc1)c1cccc2c1C=CCCC2` (racemic) [Example 290, N-[(1RS,2SR)-2-(4-bromophenyl)-2-hydroxy-1-[3-(1,1,2,2-tetrafluoroethoxy)benzyl]ethyl]-6,7-dihydro-5H-benzo[a]cycloheptene-1-carboxamide] is higher in melting point: 134 to 135 °C for the first, 184 to 185 °C for the second.

Compared with `CC(C)(C)OC(=O)N[C@H](Cc1cccc(OC(F)(F)C(F)F)c1)[C@@H](O)c1ccc(Oc2ccccn2)cc1` (racemic) [Example 257, tert-butyl (1RS,2SR)-2-hydroxy-2-[4-(pyridin-2-yloxy)phenyl]-1-[3-(1,1,2,2-tetrafluoroethoxy)benzyl]ethylcarbamate], `CC(C)(C)OC(=O)N[C@H](Cc1cccc(OC(F)(F)C(F)F)c1)[C@@H](O)c1ccc(C=O)cc1` (racemic) [Example 325, tert-butyl N-[(1RS,2SR)-2-(4-formylphenyl)-2-hydroxy-1-[3-(1,1,2,2-tetrafluoroethoxy)benzyl]ethyl]carbamate] is higher in melting point: 130 to 131 °C for the first, 140 to 142 °C for the second.

Compared with `O=C(Cc1ccccc1)N[C@H](Cc1ccc(C(F)(F)F)cc1)[C@@H](O)c1ccc(F)cc1` (racemic) [Example 69, N-((1RS,2SR)-2-(4-fluorophenyl)-2-hydroxy-1-((4-(trifluoromethyl)phenyl)methyl)ethyl)-2-phenylacetamide], `O=C(N[C@H](Cc1ccc(C(F)(F)F)cc1)[C@@H](O)c1ccc(F)cc1)c1cccc2ccccc12` (racemic) [Example 35, N-[(1RS,2SR)-2-(4-fluorophenyl)-2-hydroxy-1-[4-(trifluoromethyl)benzyl]ethyl]naphthalene-1-carboxamide] is higher in melting point: 173 to 174 °C for the first, 214 to 216 °C for the second.

First: O=C(N[C@H](Cc1cccc(OC(F)(F)C(F)F)c1)[C@@H](O)c1cccc(F)c1)c1ccc(F)c2ccccc12 (racemic) [Example 263, 4-fluoro-N-{(1RS,2SR)-2-(3-fluorophenyl)-2-hydroxy-1-[3-(1,1,2,2-tetrafluoroethoxy)benzyl]ethyl}-1-naphthamide]
Second: O=C(N[C@H](Cc1cccc(OC(F)(F)C(F)F)c1)[C@@H](O)c1cccc(Cl)c1)c1ccc(F)c2ccccc12 (racemic) [Example 264, 4-fluoro-N-{(1RS,2SR)-2-(3-chlorophenyl)-2-hydroxy-1-[3-(1,1,2,2-tetrafluoroethoxy)benzyl]ethyl}-1-naphthamide]
The melting point of the first is lower: 175 to 176 °C for the first, 177 to 178 °C for the second.

First: O=C(CCC1CCCC1)N[C@H](Cc1ccc(C(F)(F)F)cc1)[C@@H](O)c1ccc(F)cc1 (racemic) [Example 45, 3-cyclopentyl-N-[(1RS,2SR)-2-(4-fluorophenyl)-2-hydroxy-1-[4-(trifluoromethyl)benzyl]ethyl]propionamide]
Second: CC(C)(C)C(=O)NC(Cc1ccc(C(F)(F)F)cc1)C(O)c1ccc(F)cc1 (racemic) [Example 16, N-[2-(4-fluorophenyl)-2-hydroxy-1-[[4-(trifluoromethyl)phenyl]methyl]ethyl]-2,2-dimethylpropionamide]
The melting point of the first is higher: 169 to 170 °C for the first, 97 to 99 °C for the second.

Compared with `Cc1cc(C[C@@H](NC(=O)c2ccc(F)c3ccccc23)[C@@H](O)c2ccc(F)cc2)cc(OC(F)(F)C(F)F)c1` (racemic) [Example 230, N-((1RS,2SR)-2-(4-fluorophenyl)-2-hydroxy-1-((5-methyl-3-(1,1,2,2-tetrafluoroethoxy)phenyl)methyl)ethyl)-4-fluoro-1-naphthalenecarboxamide], `O=C(N[C@H](Cc1cccc(OC(F)(F)C(F)F)c1)[C@@H](O)c1ccc(F)nc1)c1ccc(F)c2ccccc12` (racemic) [Example 224, N-((1RS,2SR)-2-(6-fluoropyridin-3-yl)-2-hydroxy-1-((3-(1,1,2,2-tetrafluoroethoxy)phenyl)methyl)ethyl)-4-fluoro-1-naphthalenecarboxamide] is lower in melting point: 189 to 190 °C for the first, 148 to 149 °C for the second.

Compared with `O=C(N[C@H](Cc1ccc2c(c1)OC(F)(F)C(F)(F)O2)[C@@H](O)c1ccc(F)cc1)c1cccc2c1C=CCCC2` (racemic) [Example 270, N-{(1RS,2SR)-2-(4-fluorophenyl)-2-hydroxy-1-[(2,2,3,3-tetrafluoro-2,3-dihydro-1,4-benzodioxin-6-yl)methyl]ethyl}-6,7-dihydro-5H-benzo[a][7]annulene-1-carboxamide], `CC1(C)CC=Cc2c(cccc2C(=O)N[C@H](Cc2cccc(OC(F)(F)C(F)F)c2)[C@@H](O)c2ccc(F)cc2)C1` (racemic) [Example 288, N-[(1RS,2SR)-2-(4-fluorophenyl)-2-hydroxy-1-[3-(1,1,2,2-tetrafluoroethoxy)benzyl]ethyl]-6,6-dimethyl-6,7-dihydro-5H-benzo[a]cycloheptene-1-carboxamide] is lower in melting point: 184 to 185 °C for the first, 115 to 116 °C for the second.

Compared with `O=C(N[C@H](Cc1cccc(C(=O)C(F)(F)C(F)F)c1)[C@@H](O)c1ccc(F)cc1)c1ccc(F)c2ccccc12` (racemic) [Example 348, 4-fluoro-N-[(1RS,2SR)-2-(4-fluorophenyl)-2-hydroxy-1-[3-(2,2,3,3-tetrafluoropropionyl)benzyl]ethyl]naphthalene-1-carboxamide], `CC(F)(F)c1cccc(C[C@@H](NC(=O)c2ccc(F)c3ccccc23)[C@@H](O)c2ccc(F)cc2)c1` (racemic) [Example 359, N-[(1RS,2SR)-1-[3-(1,1-difluoroethyl)benzyl]-2-(4-fluorophenyl)-2-hydroxyethyl]-4-fluoro-1-naphthamide] is higher in melting point: 160 to 162 °C for the first, 182 to 183 °C for the second.

Compared with `O=C(N[C@H](Cc1cccc(OC(F)(F)C(F)F)c1)[C@@H](O)c1ccc(Cl)nc1)c1ccc(F)c2ccccc12` (racemic) [Example 331, N-[(1RS,2SR)-2-(6-chloropyridin-3-yl)-2-hydroxy-1-[3-(1,1,2,2-tetrafluoroethoxy)benzyl]ethyl]-4-fluoronaphthalene-1-carboxamide], `O=C(N[C@H](Cc1cccc(C=C(F)C(F)F)c1)[C@@H](O)c1ccc(F)cc1)c1ccc(F)c2ccccc12` (racemic) [Example 336, 4-fluoro-N-[(1RS,2SR)-2-(4-fluorophenyl)-2-hydroxy-1-[3-(2,3,3-trifluoro-1-propenyl)benzyl]ethyl]naphthalene-1-carboxamide] is lower in melting point: 185 to 187 °C for the first, 184 to 185 °C for the second.

First: CC(C)(C)c1ccc(C[C@@H](NC(=O)c2ccc(F)c3ccccc23)[C@@H](O)c2cccc(Cl)c2)cc1 (racemic) [Example 273, N-[(1RS,2SR)-1-(4-tert-butylbenzyl)-2-(3-chlorophenyl)-2-hydroxyethyl]-4-fluoro-1-naphthamide]
Second: CC(C)(C)Oc1ccc(C[C@@H](NC(=O)c2ccc(F)c3ccccc23)[C@@H](O)c2cccc(Cl)c2)cc1 (racemic) [Example 277, N-[(1RS,2SR)-1-(4-tert-butoxybenzyl)-2-(3-chlorophenyl)-2-hydroxyethyl]-4-fluoro-1-naphthamide]
The melting point of the first is lower: 144 to 145 °C for the first, 161 to 162 °C for the second.

First: CC(C)(C)OC(=O)N[C@H](Cc1cccc(OC(F)(F)C(F)F)c1)[C@@H](O)c1ccc(Cl)nc1 (racemic) [Example 328, tert-butyl N-[(1RS,2SR)-2-(6-chloropyridin-3-yl)-2-hydroxy-1-[3-(1,1,2,2-tetrafluoroethoxy)benzyl]ethyl]carbamate]
Second: CC(C)C(F)(F)Cc1ccc(C[C@@H](NC(=O)OC(C)(C)C)[C@@H](O)c2cccc(Cl)c2)cc1 (racemic) [Example 352, tert-butyl N-[(1RS,2SR)-2-(3-chlorophenyl)-1-[4-(2,2-difluoro-3-methylbutyl)benzyl]-2-hydroxyethyl]carbamate]
The melting point of the first is lower: 119 to 121 °C for the first, 139 to 141 °C for the second.

First: O=C(N[C@H](Cc1ccc(C(F)(F)F)cc1)[C@@H](O)c1cccc2ccccc12)c1ccc(C(F)(F)F)cc1 (racemic) [Example 189, N-((1RS,2SR)-2-hydroxy-2-(1-naphthalenyl)-1-((4-(trifluoromethyl)phenyl)methyl)ethyl)-4-(trifluoromethyl)benzamide]
Second: O=C(N[C@H](Cc1ccc(C(F)(F)F)cc1)[C@@H](O)c1cccc2ccccc12)c1ccc2ccccc2c1 (racemic) [Example 187, N-((1RS,2SR)-2-hydroxy-2-(1-naphthalenyl)-1-((4-(trifluoromethyl)phenyl)methyl)ethyl)-2-naphthalenecarboxamide]
The melting point of the first is lower: 232 to 233 °C for the first, 251 to 252 °C for the second.

Compared with `O=C(N[C@H](Cc1cccc(OC(F)(F)C(F)F)c1)[C@@H](O)c1ccc(F)cc1)c1cccc2c1OCCCO2` (racemic) [Example 128, N-[(1RS,2SR)-2-(4-fluorophenyl)-2-hydroxy-1-[3-(1,1,2,2-tetrafluoroethoxy)benzyl]ethyl]-3,4-dihydro-2H-1,5-benzodioxepine-6-carboxamide], `O=C(N[C@H](Cc1cccc(OC(F)(F)C(F)F)c1)[C@@H](O)c1ccc(OCc2ccccc2)cc1)c1cccc2c1C=CCCC2` (racemic) [Example 236, N-{(1RS,2SR)-2-[4-(benzyloxy)phenyl]-2-hydroxy-1-[3-(1,1,2,2-tetrafluoroethoxy)benzyl]ethyl}-6,7-dihydro-5H-benzo[a][7]annulene-1-carboxamide] is lower in melting point: 147 to 148 °C for the first, 115 to 116 °C for the second.

First: O=C(N[C@H](Cc1ccc(C(F)(F)F)cc1)[C@@H](O)c1ccc(F)cc1)c1cccc(Cl)c1Cl (racemic) [Example 50, 2,3-dichloro-N-((1RS,2SR)-2-(4-fluorophenyl)-2-hydroxy-1-((4-(trifluoromethyl)phenyl)methyl)ethyl)benzamide]
Second: CC(C)(C)c1ccc(C[C@@H](NC(=O)c2cccc3c(F)cccc23)[C@@H](O)c2ccc(F)cc2)cc1 (racemic) [Example 364, N-[(1RS,2SR)-1-(4-tert-butylbenzyl)-2-(4-fluorophenyl)-2-hydroxyethyl]-5-fluoro-1-naphthamide]
The melting point of the first is higher: 187 to 188 °C for the first, 148 to 149 °C for the second.
